How the values were obtained:
[1] = system: co-culture of mouse myoblast cell line C2C12 cells into which human mutant SOD1 (G93A) was introduced and mouse primary cultured motor neurons; assay: Neuromuscular junction formation in co-culture, α-bungarotoxin-positive area; type: cell-based; conditions: for concentration from which the positive area of the neuromuscular junction was significantly increased: α-bungarotoxin-positive area on day 11 after treatment, versus control (Dunnett's test); for positive area of the neuromuscular junction: day 11
[2] = system: rat primary Schwann cells; assay: Schwann cell differentiation-promoting action (MAG expression); type: cell-based; conditions: day 3 after treatment, versus control (Dunnett's test)
Method: The Schwann cell differentiation-promoting action of FF-MAS was evaluated in a culture system of rat primary Schwann cells. In other words, neonatal rats aged 0 to 2 days after birth were decapitated, then sterilized by being immersed in ethanol for disinfection, moved to a clean bench, and then washed with a recovery medium (Dulbecco's modified Eagle medium (Sigma Aldrich, product number D5921) without phenol red containing 1 vol % Antibiotic-Antimycotic (Antibiotic-Antimycotic 100×, Thermo Fisher Scientific, Inc., product number 15240062)). Thereafter, the dorsal root ganglion was extracted under a microscope and recovered in a 15 mL tube filled with the recovery medium. The recovered tube was centrifuged at 400 g for 3 minutes at room temperature, and the supernatant was removed. […] The number of cells in the filtered cell suspension was counted and adjusted to 2.0×10^5 cells/mL, and then the cells were seeded on a 96-well plate coated with poly-D-lysine at 100 μL/well each, and statically cultured in a CO2 incubator under conditions of 5% CO2, 95% air, and 37° C. […] The Schwann cell differentiation-promoting action was evaluated on the basis of the expression level of myelin-associated glycoprotein (hereinafter referred to as MAG). […]

[3] = system: mouse primary cultured motor neurons; assay: Neurite outgrowth action in mono-culture of motor neurons; type: cell-based; conditions: total protrusion length on day 4 after treatment, versus control (Dunnett's test)
Method: In a mono-culture system of mouse primary cultured motor neurons, the neurite outgrowth action of a sterol C14-reductase inhibitor (TM7SF2 inhibitor) and FF-MAS was evaluated. The mouse primary cultured motor neurons were prepared from an embryonic day 13 mouse fetus. In other words, a mouse on day 13 of gestation was subjected to cervical dislocation and euthanized, and the abdomen was incised to extract the fetus. The fetus was decapitated, and then the spinal cord was extracted under a stereomicroscope. The spinal cord was treated with HBSS containing 0.25% trypsin at 37° C. for 15 minutes, then the supernatant was removed, washing was performed 3 times with HBSS, 2 mL of a dispersion solution was added, and pipetting was repeated with a tapered Pasteur pipette to prepare a cell suspension. The cell suspension was centrifuged (200 g, 5 minutes), 2 mL of a motor neuron medium was added to the sediment, the suspension was resuspended, and the number of cells was measured. The mouse primary cultured motor neurons suspended in the motor neuron medium were seeded on a 96-well imaging plate coated with poly-D-lysine at 1.5×10^4 cells/100 μL/well. […] The neurite length was evaluated by immunostaining the nuclei and protrusions of nerve cells. […] As primary antibodies, Anti-Neuron-specific beta-III Tubulin Antibody (R&D Systems, Inc., MAB1195, 1/1,000 dilution) and Anti-NeuN Antibody (Merck Millipore, ABN78, 1/500 dilution) diluted with a blocking solution were added in an amount of 50 and the plate was allowed to stand at 4° C. overnight. After washing 3 times with 100 to 150 μL/well of PBS, 50 μL/well of Alexa Fluor 647 goat anti-mouse IgG (H+L) (Invitrogen, A-21236, 1/1,000 dilution) and Alexa Fluor 488 goat anti-rabbit IgG (H+L) (Invitrogen, A-11034, 1/1,000 dilution) as secondary antibodies were added, and the plate was allowed to stand at room temperature for 1 hour while being shielded from light, and then washed 3 times with 100 to 150 μL/well of PBS. The stained plate was photographed using the Opera Phenix high-throughput high-content imaging system ([…] Japan). Images of 5 fields per well were acquired using an Alexa Fluor 647 wavelength filter for photographing neurites and an Alexa Fluor 488 wavelength filter for photographing nuclei of nerve cells, nuclei of nerve cells and neurites per field were analyzed by an analysis program, and the sum of neurite lengths per field was calculated. Taking the mean of the sum of neurite lengths in the vehicle group (0.03% DMSO or 0.2% ethanol) evaluated for each plate as 100%, the sum of neurite lengths in the sterol C14-reductase inhibitor (TM7SF2 inhibitor) and FF-MAS treatment groups was calculated.

[4] = system: C2C12 cells in which both human mutant SOD1 (G93A) and a human TM7SF2 gene were overexpressed and mouse primary motor neurons; assay: Neuromuscular junction formation in co-culture, C2C12 overexpressing human mutant SOD1 (G93A) and human TM7SF2; type: cell-based; conditions: same concentration range (0.1, 0.3, 1, and 3 μmol/L), day 11
[5] = system: C2C12 cells in which human mutant SOD1 (G93A) was overexpressed alone and mouse primary motor neurons; assay: Neuromuscular junction formation in co-culture, C2C12 overexpressing human mutant SOD1 (G93A) alone; type: cell-based; conditions: day 11
[6] = system: mouse myoblast cell line C2C12 cells into which human mutant SOD1 (G93A) was introduced; assay: FF-MAS and 14-dehydrozymosterol accumulation action in myotube-like differentiated C2C12 cells (LC/APCI-MS/MS); type: cell-based; conditions: for intracellular FF-MAS concentration: cells recovered at 3 and 24 hours after treatment, DMSO treatment group below the detection limit; for concentration of 14-dehydrozymosterol: same treatment as for FF-MAS, cells recovered at 3 and 24 hours
Method: After mouse myoblast cell line C2C12 cells into which human mutant SOD1 (G93A) was introduced were myotube-like differentiated, the cells were treated with sterol C14-reductase inhibitors (TM7SF2 inhibitors) (amorolfine, ziprasidone, and ifenprodil), and the fluctuation of sterol in the cells was evaluated. In other words, in order to differentiate C2C12 cells into myotubes, C2C12 cells that had been cultured using 15% FBS-DMEM (Dulbecco's modified Eagle's medium containing 15% fetal bovine serum and 100 units/mL penicillin-100 μg/mL streptomycin) were cultured for 2 days in a culture flask after the medium was replaced with a low-serum medium (Dulbecco's modified Eagle's medium containing 0.5% FBS, 1% insulin-transferrin-selenium, and 100 units/mL penicillin-100 μg/mL streptomycin). Then, in order to remove proliferating undifferentiated cells, the medium was replaced with a low-serum medium containing 10 μmol/L arabinocytidine (AraC), and the cells were further cultured for 2 days. The myotube-like differentiated C2C12 cells were detached from the culture flask by treatment with 0.25% trypsin-1 mmol/L EDTA, and then the cells were seeded on a 3.5-cm culture dish coated with Matrigel at 2.4×10^5 cells/dish, and cultured for 3 days. After treatment with a sterol C14-reductase inhibitor (TM7SF2 inhibitor) or 0.03% DMSO, the cells were recovered at 3 and 24 hours. After removing the medium and washing with phosphate buffered saline (PBS), the cells were recovered with 200 µL of 90% methanol containing 1 μmol/L d7-cholesterol (internal standard substance), and further recovered again with 200 μL of a 90% methanol solution, so that a total of about 400 μL of a cell recovery solution was obtained. Then, 160 μL of this cell recovery solution was pretreated by a solid-phase extraction method using OASIS PRiME HLB glution Plate, and a sample eluted with methanol/IPA (1 : 1) was measured by high-performance liquid chromatography/atmospheric pressure chemical ionization-tandem mass spectrometry (LC/APCI-MS/MS), and each concentration in the recovery solution was calculated by an internal standard calibration curve method.

[7] = system: myasthenia gravis model rat; assay: Rat myasthenia gravis model (mAb35 induced), grip strength; type: in vivo; conditions: grip strength at 96 hours after induction by mAb35; repeated oral administration once a day; versus control (Dunnett's test)
Method: The efficacy of ifenprodil, which is a sterol C14-reductase inhibitor (TM7SF2 inhibitor), in a rat myasthenia gravis model was evaluated. The rat myasthenia gravis model is a model in which a neuromuscular junction (NMJ) is impaired and motor functions such as grip strength are declined by treating a rat with mAb35, which is an antibody against an anti-acetylcholine receptor. First, an anti-acetylcholine receptor antibody mAb35 (Bio X Cell, product number BE0123) as an inducing agent was intraperitoneally administered to a 5-week-old female LEW/CrlCrlj rat at a concentration of 0.29 mg/mL and a volume of 5 mL/kg to induce a pathological condition. Ifenprodil (MedChemExpress, product number HY-12882A) as a test substance was dissolved in water for injection (Otsuka Pharmaceutical Factory, Inc.) containing 2% DMSO so that the concentration is 0.1, 0.3, and 1 mg/mL to prepare an administration solution. Ifenprodil was repeatedly orally administered once a day at doses of […] from 9 hours after induction by administration of mAb35 to 4 days after induction as the evaluation end date. […] The grip strength was measured on the day before induction (pre-value). […] For quantitative evaluation of the grip strength, a grip strength measuring device Traction Meter (BrainScience idea Co., Ltd.) was used.

CC(C)=CCC[C@@H](C)[C@H]1CC=C2C3=C(CC[C@@]21C)[C@@]1(C)CC[C@H](O)C[C@@H]1CC3 [14-dehydrozymosterol, 5alpha-cholesta-8,14,24-trien-3beta-ol]
concentration from which the positive area of the neuromuscular junction was significantly increased [1]: 10 µmol/L

CC(C)=CCC[C@@H](C)[C@H]1CC=C2C3=C(CC[C@@]21C)[C@@]1(C)CC[C@H](O)C(C)(C)[C@@H]1CC3 [FF-MAS, 4,4-dimethyl-5alpha-cholesta-8,14,24-trien-3beta-ol]
concentration from which the value of MAG/number of cell nuclei was significantly increased [2]: 3 µmol/L | concentration from which the sum of neurite lengths was significantly increased [3]: 1.1 µmol/L | concentration from which the positive area of the neuromuscular junction was significantly increased [1]: 10 µmol/L

COc1ccc(S(=O)(=O)N2CCC(N3CCC(C)CC3)CC2)cc1 [TASIN-1]
positive area of the neuromuscular junction [1]: no significant increase

CCC(C)(C)c1ccc(CC(C)CN2C[C@@H](C)O[C@@H](C)C2)cc1 (stereo partly shown) [amorolfine]
positive area of the neuromuscular junction [4]: no increasing fluctuation | positive area of the neuromuscular junction ([5]; at 1 μmol/L): significantly increased | positive area of the neuromuscular junction ([5]; at 3 mol/L): significantly increased | concentration from which the sum of neurite lengths was significantly increased [3]: 0.3 µmol/L | concentration from which the positive area of the neuromuscular junction was significantly increased [1]: 0.3 µmol/L | intracellular FF-MAS concentration [6]: increase | concentration of 14-dehydrozymosterol [6]: increase

CC(C(O)c1ccc(O)cc1)N1CCC(Cc2ccccc2)CC1 (stereo not shown) [ifenprodil]
dose from which the grip strength was significantly improved [7]: 3 mg/kg | concentration from which the sum of neurite lengths was significantly increased [3]: 1 µmol/L | concentration from which the positive area of the neuromuscular junction was significantly increased [1]: 1 µmol/L | intracellular FF-MAS concentration [6]: increase | concentration of 14-dehydrozymosterol [6]: increase

O=C1Cc2cc(CCN3CCN(c4nsc5ccccc45)CC3)c(Cl)cc2N1 [ziprasidone]
concentration from which the sum of neurite lengths was significantly increased [3]: 1 µmol/L | concentration from which the positive area of the neuromuscular junction was significantly increased [1]: 3 µmol/L | intracellular FF-MAS concentration [6]: increase | concentration of 14-dehydrozymosterol [6]: increase

CC(C)=CCC[C@@H](C)[C@H]1CC[C@H]2C3=C(CC[C@]12C)[C@@]1(C)CC[C@H](O)C[C@@H]1CC3 [zymosterol]
positive area of the neuromuscular junction ([1]; added at 0.05 to 10 μmol/L): no significant increase

Reference: patent publication US20230181554A1, “AGENT FOR PROTECTING AND/OR REGENERATING NEUROMUSCULAR JUNCTION” (ONO PHARMACEUTICAL CO., LTD., priority 2020, published 2023)
